Patent US7029857B1, “Processes for obtaining compounds employing SNORF72 receptors” (H. Lundbeck A/S, priority 1999, dated 2006)
No end group written: not given here.

Molecular target: T1, SNORF62 (Homo sapiens, UniProt Q9HB89)
T1 sequence (Q9HB89 1-426): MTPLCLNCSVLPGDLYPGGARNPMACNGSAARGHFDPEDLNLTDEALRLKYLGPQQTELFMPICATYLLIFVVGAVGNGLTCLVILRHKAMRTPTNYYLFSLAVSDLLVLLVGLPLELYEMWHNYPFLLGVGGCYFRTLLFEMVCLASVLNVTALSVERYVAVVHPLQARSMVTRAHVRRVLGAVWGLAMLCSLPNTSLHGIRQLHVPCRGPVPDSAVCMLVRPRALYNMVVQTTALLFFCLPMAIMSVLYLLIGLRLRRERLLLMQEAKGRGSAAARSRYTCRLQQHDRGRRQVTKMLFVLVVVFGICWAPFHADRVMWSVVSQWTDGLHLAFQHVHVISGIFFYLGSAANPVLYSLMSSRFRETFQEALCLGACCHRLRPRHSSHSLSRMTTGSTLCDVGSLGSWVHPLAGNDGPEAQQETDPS
Experiment: Calcium-activated Cl- currents in Xenopus oocytes injected with SNORF62 mRNA
Type: cell-based
Set-up: from linearized plasmids or PCR products containing the complete coding region of the gene; expressed in transfected cells; host or cells: Xenopus laevis oocytes injected with in vitro transcribed SNORF62 mRNA
Settings: 1 μM peptide, n=3
Protocol: Heterologous expression of GPCRs in Xenopus oocytes has been widely used to determine the identity of signaling pathways activated by agonist stimulation (Gundersen et al., 1983; Takahashi et al., 1987). Activation of the phospholipase C (PLC) pathway is assayed by applying a test compound in ND96 solution to oocytes previously injected with mRNA for the human SNORF62 and observing inward currents at a holding potential of approximately −80 mV. The appearance of currents that reverse at −25 mV and display other properties of the Ca^++-activated Cl^− channel is indicative of receptor-acitivation of PLC and release of IP3 and intracellular Ca^++.
In the present invention, oocytes were harvested from Xenopus laevis and injected with mRNA transcripts as previously described (Quick and Lester, 1994; Smith et al., 1997). SNORF62 mRNA transcript was synthesized using the T7 polymerase (“Message Machine”, Ambion) from linearized plasmids or PCR products containing the complete coding region of the gene. Oocytes were injected with 1–50 ng synthetic receptor RNA and incubated for 3–8 days at 17° C. Currents were recorded under dual electrode voltage clamp (Axon Instruments Inc.) with 3 M KCl-filled glass microelectrodes having resistances of 1–2 Mohm. Unless otherwise specified, oocytes were voltage clamped at a holding potential of −80 mV. […]

## FRVDEEFQSPFASQSRGYFLFRPRN-NH2 [human NMU-25, FRVDEEFQSPFASQSRGYFLFRPRN—NH2]
  current amplitude: 1065±211 nA
